“Also recorded” adds a separate entry of the source.
Legend:
Format in all cases: cell-based, human
P-JNK^Thr183/Tyr185 = assay: Western blot for P-JNK in primary AML sample L-AML6; conditions: L-AML6, 48 h
Method: Cells were harvested (4×10^6 for cell lines and 7×10^6 for L-AMLs) and washed 3 times with cold PBS (centrifuged at 4° C.). Lysis buffer was prepared with NP40 Cell Lysis Buffer (ThermoFisher Scientific), cOmplete protease inhibitor (Roche, 046993116001), PhosStop (Roche, 04906837001) and Pefablock (Roche, 11585916001) at the recommended concentrations. After the washes, cells were resuspended in 50 μL of lysis buffer, vortexed and incubated on ice for 30 min. Samples were vortexed every 10 min. After 30 min incubation, samples were centrifuged at 14,000 g at 4° C. for 10 min and supernatants were transferred to tubes. Protein was quantified using the DC Protein Assay kit (BioRad) per manufacturer's protocol. 50 μg of cell lines lysate or 20 μg of L-AML6 lysate were loaded for SDS-PAGE. Protein was transferred from the gels into PVDF membranes using a semi dry transfer apparatus (BioRad). The membranes were blocked for 1 h at room temperature with 5% skim milk in 0.1% TBS-t and then incubated with gentle shaking with primary antibodies overnight at 4° C. […]
Western blot analysis. […] For L-AML6 cells P-JNK^Thr183/Tyr185 and Noxa expression were determined using the specific antibodies that have been validated in the cell line experiments (FIG. 4). […]

[1] = system: primary AML samples L-AML6 and L-AML419; assay: Blast cell colony assay (Methocult); conditions: 13 days
Method: 1.5 mL of Methocult H4034 (STEMCELL Technologies) was aliquoted in 5 mL tubes (one tube/treatment/sample) and supplemented with 20 ng/mL of hIL-6 (Peprotech, 200-06). EX 1 and OXi4503 dilutions were added to respective tubes to the final concentrations 100 nM and 500 nM. DMSO was used as vehicle control. Samples were added to each tube to the final cell density: 2×10^4 cells/well for L-AML6 and L-AML419, 3×10^3 cells/well for AML136 and AML480. The tubes were shaken to mix drugs and cells with the Methocult and incubated at 37° C. for 10 min to remove bubbles. Samples were then plated in 24-well plates, 4 wells/treatment/sample in the 8 wells at the centre of the plate. The wells at the edges were filled with sterile water to avoid drying. Plates were incubated at 37° C. for 13 days before colonies were counted.
Blast cell colony assay. For colony assays AML MNC were plated in methylcellulose with added cytokines (see Methods) and colonies scored after 13 days. […] L-AML419 also formed a small number of colonies in the DMSO-treated wells, with fewer background cells.

[2] = system: GPR56+ LSC containing population of AML samples; assay: LSC detection by flow cytometry (CD34, CD38, GPR56)
Method: 8×10^5 cells (800 μL) were harvested in 5 mL tubes and fixed with 1.6% formaldehyde for 10 min at room temperature. The samples were then washed once with PBS and once with PBS/1% BSA. The cell pellets were resuspended in 100 μL PBS/1% BSA containing 5 μL of anti-CD34-APC (BD Biosciences, clone 8G12, catalogue 340441, lot 6183704), 5 μL of anti-CD38-PECy7 (BD Biosciences, 335790, lot 3353807) and 5 μL of anti-GPR56-PE (Biolegend, 358204, lot B208353) and incubated at room temperature for 1 h in the dark. Finally, cells were washed twice with PBS and resuspended in 200 μL of PBS for analysis on an LSRFortessa (BD Biosciences) flow cytometer. Results were analysed with FCS Express 4 Flow Research Edition software (De Novo Software).
LSC analysis. AML BMMNC samples were first gated for viable cells and then the fraction of GPR56+ cells was determined. According to the report by Pabst and collaborators (Pabst et al, Blood 2016), in CD34^high AML samples the GPR56+ population containing LSCs is present within the CD34+ cells, while in CD34^low AML samples the GPR56+ population containing LSCs is present in both CD34+ and CD34− cell populations. Therefore, the LSC containing subpopulation was estimated from the CD34+/GPR56+ gate for AML235, and from the GPR56+/CD34+ and GPR56+/CD34− gates in AML136 and AML480 (FIG. 6A). A decrease in these subpopulations in response to EX 1 would be consistent with the drug targeting the important LSC-containing compartment. […] On the other hand, OXi4503 treatment, when compared to vehicle control (DMSO), had little effect on AML136 and no effect on AML235 and AML480 (FIG. 6B).

[3] = L-AML419, all doses (100 nM and 500 nM)

| Structure (SMILES) | P-JNK level (P-JNK^Thr183/Tyr185; 500 nM) | colony formation ([1]; L-AML6, either dose (100 nM and 500 nM)) | colony formation [1, 3] | GPR56+ LSC containing cell population ([2]; AML136, AML235, AML480, 48 h) | concentration at which the LSC population is decreased (as low as) ([2]; AML samples, 48 h, FIG. 6C) | P-JNK level (P-JNK^Thr183/Tyr185; indicated doses) | colony formation ([1]; L-AML6, 100 nM) | colony formation ([1]; L-AML6, 500 nM) | effect on GPR56+ LSC containing population vs DMSO ([2]; AML136, 48 h) | effect on GPR56+ LSC containing population vs DMSO ([2]; AML235 and AML480, 48 h) |
| --- | --- | --- | --- | --- | --- | --- | --- | --- | --- | --- |
| COc1cc(C(=O)c2c(C)oc3c(O)c(OC)ccc23)cc(OC)c1OC [EX 1, 2-Methyl-7-hydroxy-3-(3,4,5-trimethoxybenzoyl)-6-methoxybenzofuran] | small increase; also recorded: induced | no colonies or background cells were observed; also recorded: Colony formation is blocked | completely blocked colony and background formation; also recorded: Colony formation is blocked | affected at different rates | 20 nM |  |  |  |  |  |
| COc1cc(/C=C\c2ccc(OC)c(OP(=O)(O)O)c2OP(=O)(O)O)cc(OC)c1OC [OXi4503, reference compound] |  |  | completely blocked colony and background formation; also recorded: completely inhibits colonies |  |  | no apparent change | reduced the background cells and also the number of colonies; also recorded: reduces colony formation | completely blocked colony formation; also recorded: completely inhibits colonies | little effect | no effect |
